According to PMC8125951, “Exploring the 2′-Hydroxy-Chalcone Framework for the Development of Dual Antioxidant and Soybean Lipoxygenase Inhibitory Agents” (Molecules, 2021):
pIC50: −log10 of the molar value.

Assays:
[1] = biological target: T1, soybean lipoxygenase (Glycine max, UniProt P08170); assay: Soybean LOX inhibition study in vitro; assay type: biochemical; settings: for inhibition at 100 µM: read-out: Inhibition of Soybean Lipoxygenase 100 μM (%)
T1 sequence (P08170 1-839): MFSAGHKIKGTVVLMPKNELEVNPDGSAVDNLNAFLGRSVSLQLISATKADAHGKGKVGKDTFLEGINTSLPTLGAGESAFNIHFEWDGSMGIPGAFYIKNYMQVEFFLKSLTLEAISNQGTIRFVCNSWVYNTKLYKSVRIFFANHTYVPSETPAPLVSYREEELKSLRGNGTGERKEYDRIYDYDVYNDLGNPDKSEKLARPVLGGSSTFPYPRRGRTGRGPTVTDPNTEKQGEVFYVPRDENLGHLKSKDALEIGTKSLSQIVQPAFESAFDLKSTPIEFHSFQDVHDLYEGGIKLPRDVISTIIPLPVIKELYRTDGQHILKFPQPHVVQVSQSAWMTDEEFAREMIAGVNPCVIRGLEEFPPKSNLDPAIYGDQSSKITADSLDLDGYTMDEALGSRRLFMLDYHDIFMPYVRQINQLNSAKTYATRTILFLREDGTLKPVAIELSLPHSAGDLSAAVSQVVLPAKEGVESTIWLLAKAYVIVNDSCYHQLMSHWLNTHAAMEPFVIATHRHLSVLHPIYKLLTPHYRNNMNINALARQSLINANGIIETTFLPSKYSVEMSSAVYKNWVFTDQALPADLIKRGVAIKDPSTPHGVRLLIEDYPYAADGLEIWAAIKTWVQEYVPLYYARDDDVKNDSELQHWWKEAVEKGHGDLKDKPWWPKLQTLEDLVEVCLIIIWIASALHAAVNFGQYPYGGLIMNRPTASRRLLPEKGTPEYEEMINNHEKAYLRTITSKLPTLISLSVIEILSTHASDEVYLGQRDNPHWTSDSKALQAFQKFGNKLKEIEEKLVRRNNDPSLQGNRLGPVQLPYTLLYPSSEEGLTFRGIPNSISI
Procedure: Furthermore, as an indication of their anti-inflammatory activity, all the molecules were tested as inhibitors of soybean lipoxygenase (LOX). The enzyme lipoxygenase catalyzes the first two steps in the metabolism of arachidonic acid, which is cleaved from membrane phospholipids to leukotrienes (LTB4). LTB4 generation is considered to be important in the pathogenesis of neutrophil-mediated inflammatory diseases. For this study, the UV absorbance-based soybean LOX assay was used, which is a plant enzyme with satisfactory homology with the human 5-LOX [61, 62, 63, 64, 65, 66].
The tested compounds dissolved in DMSO were incubated at room temperature with sodium linoleate (0.1 mL) and 0.2 mL of enzyme solution ([…] in saline) in Tris buffer pH 9.

[2] = ABTS radical cation decolorization assay; settings: 100 μM
Procedure: The ABTS radical cation decolorization assay was used as another antioxidant activity estimation protocol (Table 2). Oxidation of ABTS with potassium persulfate generates directly the radical with no involvement of an intermediate radical, which is then reduced upon adding electron-donating antioxidants.
In order to produce the ABTS radical cation (ABTS^+·), ABTS stock solution in water (7 mM) was mixed with potassium persulfate (2.45 mM) and left in the dark at room temperature for 12–16 h before use. Our published experimental technique was used (1). The results are recorded after 1 min of the mixing solutions at 734 nm. The results were compared to the appropriate standard inhibitor Trolox.

[3] = Interaction with the stable free radical DPPH (reducing activity)
Procedure: The first assay refers to the interaction of the compounds with the stable free radical DPPH and it is a fast, simple, cost-effective, and widely used method, where the DPPH radical reacts directly with the antioxidant and is decolorized. This interaction indicates their radical scavenging ability in an iron-free system. The scavenging effect of the synthesized analogues on the DPPH radical was evaluated according to the methods of Hadjipavlou et al..
To an ethanolic solution of DPPH (100 μM) in absolute ethanol, an equal volume of the compounds dissolved in DMSO was added (100 μM). […]

[4] = Competition of the tested compounds with DMSO for hydroxyl radicals; settings: 100 μM
Text: Among the reactive oxygen species (ROS), the hydroxyl (^•OH) free radical is possibly the most toxic, reacting with several biological important molecules such as DNA, lipids, or carbohydrates. Polyunsaturated fatty acids are particularly vulnerable by free radicals. Iron released from damaged cells is more likely to be readily available to catalyze the generation of ^•OH radicals. Thus, we tried to test the ability of our compounds to scavenge hydroxyl radicals determining the competition of selected chalcones and aurones with DMSO for hydroxyl radicals. Hydroxyl radicals were generated using the Fe^3+/ascorbic acid system and expressed as a percentage inhibition of formaldehyde production in the presence of each compound at 100 μM.
The hydroxyl radicals generated by the Fe^3+ / ascorbic acid system, were detected by the determination of formaldehyde produced from the oxidation of DMSO (Table 2). A negative control using the same % DMSO was used. Trolox was used as reference compound [75].

[5] = Inhibition of linoleic acid lipid peroxidation induced by AAPH
Text: The second technique is based on the ability of the compounds to inhibit lipid peroxidation of linoleic acid induced by 2,2′-Azobis(2-amidinopropane) dihydrochloride (AAPH) radical (Table 2). AAPH-induced linoleic acid oxidation has been developed as a quick and reliable method for measuring the antioxidant activity. The thermal free radical producer (AAPH) generates free radicals in the solution which cause the oxidation of linoleic acid, and the method is a measure of how effective antioxidants protect against lipid peroxidation in vitro. Oxidation of linoleic acid by AAPH is followed by UV spectrophotometry in a highly diluted sample [61].
2,2′-Azobis(2-amidinopropane) dihydrochloride (AAPH) was used as a free radical initiator. Ten microliters of the 16 mM linoleic acid sodium salt solution was added to the UV cuvette containing 0.93 mL of 0.05 M phosphate buffer, pH 7.4 prethermostated at 37 °C. The oxidation reaction was initiated at 37 °C under air by the addition of 50 μL of 40 mM AAPH solution. Oxidation was carried out in the presence of the synthesized compounds (10 μL, from a stock solution of 10 mM in DMSO). In the assay without antioxidant, lipid oxidation was measured in the presence of the same level of DMSO.

Row | SMILES | inhibition at 100 µM [1] | ABTS+· % [2] | Interaction with the Free Radical DPPH (%) ([3]; 0 min) | Interaction with the Free Radical DPPH (%) ([3]; 100 μM, 20 min) | Interaction with the Free Radical DPPH (%) ([3]; 100 μM, 60 min) | Interaction with the Free Radical DPPH (%) ([3]; 3 min) | Interaction with the Free Radical DPPH (%) ([3]; 6 min) | Interaction with the Free Radical DPPH (%) ([3]; 9 min) | HO· (%) competition with DMSO for hydroxyl radicals [4] | Inhibition of Lipid Peroxidation of Linoleic Acid Induced by AAPH Radical (%) ([5]; 100 μM) | pIC50 ([1]; read-out: Inhibition of Soybean Lipoxygenase IC50) | Inhibition of Lipid Peroxidation of Linoleic Acid Induced by AAPH Radical (%) ([5]; 0 min) | Inhibition of Lipid Peroxidation of Linoleic Acid Induced by AAPH Radical (%) ([5]; 3 min) | Inhibition of Lipid Peroxidation of Linoleic Acid Induced by AAPH Radical (%) ([5]; 6 min) | Inhibition of Lipid Peroxidation of Linoleic Acid Induced by AAPH Radical (%) ([5]; 9 min)
1 | O=C1/C(=C/c2ccc(O)c(O)c2)Oc2cc(O)ccc21 [Compound 7a, 3′,4′,6-Trihydroxy-Aurone] | 24.5% | 71% | 92.3% | 89% | 91.2% | 94.4% | 94.9% | 94.9% | inactive and no | 53.2% | – | – | – | – | –
2 | COCOc1ccc(C(=O)/C=C/c2ccc(OCOC)c(OCOC)c2)c(O)c1 [Compound 3a, 2′-hydroxy-4′,3,4-methoxymethoxy-chalcone] | 40.2% | 93% | – | – | 21.6% | – | – | – | 40% | 11.4% | – | – | – | – | –
3 | COCOc1ccc2c(c1)O/C(=C\c1ccc(OCOC)c(OCOC)c1)C2=O [Compound 6a, 3′,4′,6-tri(methoxymethoxy)-aurone] | 24.4% | 86% | – | no interaction and did not show any DPPH radical scavenging ability and no | no | – | – | – | 43% | 18.5% | – | – | – | – | –
4 | COc1cc(OC)c(OC)cc1/C=C1\Oc2ccccc2C1=O [Compound 6b, 2′,4′,5′-trimethoxy-aurone] | 13% | 64% | – | no interaction and did not show any DPPH radical scavenging ability and no | no | – | – | – | no | 29.4% | – | – | – | – | –
5 | O=C(/C=C/c1ccc(O)c(O)c1)c1ccc(O)cc1O [Compound 4a, 2′,3,4,4′-tetrahydroxy-chalcone] | 39.3% | 86% | 95.4% | 95.7% | 95.3% | 95.4% | 94.9% | 95.4% | 68% | 24.4% | – | – | – | – | –
6 | O=C(/C=C/c1ccc(O)c(O)c1)c1cc(Br)ccc1O [Compound 4b, 5′-bromo-2′,3,4-trihydroxy-chalcone] | – | inactive and no | – | 82.4% | 82.0% | – | – | – | 100% | 82.3% | 4.15 | 81.8% | 82.6% | 82.5% | 81.5%
